Data taken from the supplement of paper PMC13380429.

Key:
[1] = test system: A549-ACE2 infected with SARS-CoV-2; assay: morphology score (similarity to uninfected cells); higher = more like uninfected cells; conditions: 24 h
[2] = test system: A549-ACE2 infected with SARS-CoV-2; assay: cell count relative to DMSO; higher = less toxic; conditions: 24 h
Vero E6 [3] = assay: relative viability EC50 (midpoint between 100% and the lowest measured viability); higher = less toxic; conditions: 72 h
Calu-3 [4] = assay: as above; conditions: 72 h
[5] = test system: A549-ACE2 infected with SARS-CoV-2; assay: SARS-CoV-2 infection rate relative to DMSO; higher = more infection; conditions: 24 h
HepG2 [6] = assay: drug sensitivity score (DSS) for viability; higher = more toxic; extreme values may be limits of the assay; conditions: 72 h
Vero E6 [7] = assay: as above; conditions: 72 h
U2OS [8] = assay: as above; conditions: 72 h
Calu-3 [9] = assay: as above; conditions: 72 h
HepG2 [10] = assay: cell viability relative to DMSO; higher = less toxic; conditions: 72 h
Vero E6 [11] = assay: as above; conditions: 72 h
U2OS [12] = assay: as above; conditions: 72 h
Calu-3 [13] = assay: as above; conditions: 72 h
HepG2 [14] = assay: relative viability EC50 (midpoint between 100% and the lowest measured viability); higher = less toxic; conditions: 72 h
Caco-2 [15] = assay: drug sensitivity score (DSS) for viability; higher = more toxic; extreme values may be limits of the assay; conditions: 72 h
A549-ACE2 [16] = assay: drug-induced phospholipidosis relative to tamoxifen; higher = more phospholipidosis
Caco-2 [17] = assay: cell viability relative to DMSO; higher = less toxic; conditions: 72 h
A549-ACE2 [18] = assay: phospholipidosis EC50; higher = less potent phospholipidosis inducer
Caco-2 [19] = assay: relative viability EC50 (midpoint between 100% and the lowest measured viability); higher = less toxic; conditions: 72 h
U2OS [20] = assay: as above; conditions: 72 h

COc1ccc(C(=O)/C(Cc2cc(OC)c(OC)c(OC)c2)=C(\C(=O)O)c2ccc3c(c2)OCO3)cc1
Conditions | SARS-CoV-2 infection rate, [5] [%] | cell count, [2] [%] | cell viability, Calu-3 [13] [%] | cell viability, HepG2 [10] [%] | cell viability, U2OS [12] [%] | cell viability, Vero E6 [11] [%] | morphology score, [1]
1 nM | – | – | 91.9 | 102 | 98.9 | 97.1 | –
10 nM | – | – | 87.6 | 93.9 | 94.9 | 101 | –
100 nM | – | – | 101 | 95.3 | 97.7 | 104 | –
0.3 µM | 101 | 98 | – | – | – | – | -0.18
1000 nM | – | – | 101 | 95.2 | 96.2 | 109 | –
3 µM | 95 | 104 | – | – | – | – | 0.12
10 µM | 42 | 82 | – | – | – | – | 0.6
10000 nM | – | – | 94.1 | 65.2 | 57.6 | 104 | –
30 µM | 16 | 22 | – | – | – | – | 0.36

Conditions | drug sensitivity score | relative viability EC50 [µM]
Calu-3 [4] | – | > 10
Calu-3 [9] | 0 | –
HepG2 [6] | 2.4 | –
U2OS [8] | 2.8 | –
Vero E6 [3] | – | > 10
Vero E6 [7] | 0 | –

O=C(Nc1ncc(SCCN2CCCC2)s1)[C@]1(c2ccc(S(=O)(=O)C3CC3)cc2)C[C@H]1C1CCCCC1
Conditions | SARS-CoV-2 infection rate [%] | cell count [%] | cell viability [%] | morphology score | phospholipidosis EC50 [µM]
A549-ACE2 [18], 24 h | – | – | – | – | 6.5
A549-ACE2 [18], 48 h | – | – | – | – | 5.12
A549-ACE2 [18], 72 h | – | – | – | – | 5.4
Caco-2 [17], 1 nM | – | – | 101 | – | –
Caco-2 [17], 10 nM | – | – | 98.9 | – | –
Caco-2 [17], 100 nM | – | – | 98 | – | –
Caco-2 [17], 1000 nM | – | – | 102 | – | –
Caco-2 [17], 10000 nM | – | – | 69 | – | –
Calu-3 [13], 1 nM | – | – | 110 | – | –
Calu-3 [13], 10 nM | – | – | 93.8 | – | –
Calu-3 [13], 100 nM | – | – | 96.4 | – | –
Calu-3 [13], 1000 nM | – | – | 103 | – | –
Calu-3 [13], 10000 nM | – | – | 14 | – | –
HepG2 [10], 1 nM | – | – | 104 | – | –
HepG2 [10], 10 nM | – | – | 99.2 | – | –
HepG2 [10], 100 nM | – | – | 98.6 | – | –
HepG2 [10], 1000 nM | – | – | 90.2 | – | –
HepG2 [10], 10000 nM | – | – | 44.8 | – | –
U2OS [12], 1 nM | – | – | 99.4 | – | –
U2OS [12], 10 nM | – | – | 105 | – | –
U2OS [12], 100 nM | – | – | 104 | – | –
U2OS [12], 1000 nM | – | – | 102 | – | –
U2OS [12], 10000 nM | – | – | 74.9 | – | –
Vero E6 [11], 1 nM | – | – | 96.3 | – | –
Vero E6 [11], 10 nM | – | – | 94.6 | – | –
Vero E6 [11], 100 nM | – | – | 97.2 | – | –
Vero E6 [11], 1000 nM | – | – | 90.5 | – | –
Vero E6 [11], 10000 nM | – | – | 95.4 | – | –
[1], 0.3 µM | – | – | – | 0.2 | –
[1], 3 µM | – | – | – | 0.84 | –
[1], 10 µM | – | – | – | 0.6 | –
[1], 30 µM | – | – | – | -0.07 | –
[2], 0.3 µM | – | 101 | – | – | –
[2], 3 µM | – | 115 | – | – | –
[2], 10 µM | – | 118 | – | – | –
[2], 30 µM | – | 56 | – | – | –
[5], 0.3 µM | 94 | – | – | – | –
[5], 3 µM | 27 | – | – | – | –
[5], 10 µM | 8 | – | – | – | –
[5], 30 µM | 44 | – | – | – | –

Conditions | drug sensitivity score | relative viability EC50 [µM]
Caco-2 [15] | 1.3 | –
Calu-3 [4] | – | 3.34
Calu-3 [9] | 4.6 | –
HepG2 [6] | 4.6 | –
HepG2 [14] | – | 1.84
U2OS [8] | 0.8 | –
Vero E6 [3] | – | > 10
Vero E6 [7] | 0 | –

drug-induced phospholipidosis [%], A549-ACE2 [16]
Conditions | 0.3 µM | 0.833333 µM | 3.33333 µM | 6.66667 µM | 10 µM | 30 µM
24 h | 14.6 | 32.7 | 73.1 | 104 | 117 | 197
48 h | 10.1 | 21.2 | 80.9 | 105 | 132 | –
72 h | 11.7 | 19.3 | 75.5 | 114 | 138 | –

Cc1ccc(S(=O)(=O)/C=C/C#N)cc1 [BAY-11-7082]
Conditions | SARS-CoV-2 infection rate, [5] [%] | cell count, [2] [%] | cell viability, Caco-2 [17] [%] | cell viability, Calu-3 [13] [%] | cell viability, HepG2 [10] [%] | cell viability, U2OS [12] [%] | cell viability, Vero E6 [11] [%] | morphology score, [1]
1 nM | – | – | 92.8 | 104 | 94.2 | 97.2 | 95.5 | –
10 nM | – | – | 90.5 | 101 | 96.9 | 98.7 | 94.4 | –
0.1 µM | 106 | 101 | – | – | – | – | – | 0
100 nM | – | – | 95.4 | 110 | 101 | 98.5 | 99.7 | –
0.3 µM | 99 | 98 | – | – | – | – | – | -0.16
1 µM | 108 | 95 | – | – | – | – | – | -0.29
1000 nM | – | – | 97.7 | 107 | 89.7 | 97.2 | 92.6 | –
3 µM | 107 | 84 | – | – | – | – | – | -0.27
10000 nM | – | – | 27 | 52.2 | 0 | 0.1 | 12.9 | –

Conditions | drug sensitivity score | relative viability EC50 [µM]
Caco-2 [15] | 4.3 | –
Caco-2 [19] | – | 2.94
Calu-3 [9] | 2 | –
HepG2 [6] | 7.2 | –
HepG2 [14] | – | 2.31
U2OS [8] | 5.9 | –
U2OS [20] | – | 2.96
Vero E6 [3] | – | 2.47
Vero E6 [7] | 6 | –

drug-induced phospholipidosis [%], A549-ACE2 [16]
Conditions | 0.3 µM | 0.833333 µM | 3.33333 µM | 6.66667 µM | 10 µM
24 h | 1.81 | 0.62 | 1.15 | 1.47 | 1.45
48 h | 2.31 | 0.11 | -1.24 | 0.67 | 2.43
72 h | 3.69 | -0.813 | -2.01 | -1.91 | -1.18
